Assay results from ChEMBL document CHEMBL4673299, “A new sesquineolignan and four new neolignans isolated from the leaves of Piper betle, a traditional medicinal plant in Myanmar” (Bioorg Med Chem Lett, 2021).

Columns and labels:
RAW264.7 [1] = assay: Anti-inflammatory activity in murine RAW264.7 cells assessed as inhibition of LPS-induced NO production; type: functional, cell-based; conditions: Mus musculus
RAW264.7 [2] = assay: Anti-inflammatory activity in murine RAW264.7 cells assessed as inhibition of LPS-induced NO production at 50 uM relative to control; type: functional; conditions: Mus musculus

Row | Compound | IC50 (RAW264.7 [1]) | inhibition at 50 µM (RAW264.7 [2])
1 | C=CCc1cc(O)c(OC)cc1C/C=C/c1ccc(OC)c(O)c1 | 45.9 µM | –
2 | C=CCc1cc(O)c2c(c1)-c1cc(O)c(O)cc1C(C=C)O2 (centres undefined) | – | < 50%
3 | C=CCc1cc(O)c(O)cc1-c1cc(OC)c(O)cc1CC=C | – | < 50%
4 | C=CCc1cc(O)c2oc3cc(O)c(O)c(CC=C)c3c2c1 | – | < 50%
5 | C=CCc1ccc2c(c1)O[C@@H](c1ccc(O)c(O)c1)[C@H](Cc1cc(O)c(O)cc1CC=C)O2 | 9.87 µM | –
6 | C=CCc1cc(O)c(O)cc1-c1cc(O)c(O)cc1CC=C | 40.5 µM | –
7 | COc1cc(/C=C/CO)ccc1O [CONIFERYL ALCOHOL] | – | < 50%
8 | COc1cc(/C=C/C=O)ccc1O [CONIFERYL ALDEHYDE] | – | < 50%
9 | C=CCc1ccc(O)c(OC)c1 [EUGENOL] | – | < 50%
10 | C=CCc1ccc(O)c(O)c1 [HYDROXYCHAVICOL] | 4.8 µM | –
11 | COC(=O)/C=C/c1ccc(O)cc1 [METHYL P-HYDROXYCINNAMATE] | – | < 50%
12 | CNC(=N)NCCC[C@H](N)C(=O)O [TILARGININE] | 33.8 µM | –
13 | COc1cc(C=O)ccc1O [VANILLIN] | – | < 50%
14 | O=C/C=C/c1ccc(O)cc1 [p-HYDROXYCINNAMALDEHYDE] | 26.4 µM | –
